Among the targets are Cytochrome P450 2C9 (Homo sapiens, UniProt P11712); Cytochrome P450 2D6 (Homo sapiens, UniProt P10635); Cytochrome P450 3A4 (Homo sapiens, UniProt P08684).
Test [1] concerns the target T1, Polyadenylate-binding protein 1 (Homo sapiens, UniProt P11940). Nature of the test: PABP1 MLLE–PAM2 interaction inhibitors, dose response, miRNA deadenylation inhibitor project, biochemical, fluorescence polarization, Cy5-PAM2 peptide, secondary (AID 602260). The class given is functional. The following applies: read-out: IC50_Mean.
The target in test [2] is T1, Polyadenylate-binding protein 1. Nature of the test: PABP1 MLLE–PAM2 binding inhibitor potency, dose response, biochemical, fluorescence polarization, FITC-PAM2 peptide (AID 602259). The class given is functional. The following applies: read-out: IC50_Mean.
A short description of test [3]: cells. The class given is functional, cell-based.
Test [4] is described as follows: cells. The class given is functional, cell-based. This is another data set of the same source.
Test [5] has as its target FAD-linked sulfhydryl oxidase ALR (Homo sapiens, UniProt P55789). Nature of the test: inhibitors of human ALR sulfhydryl oxidase, dose response, biochemical, H2O2 detection, luminescence, cherry-pick (AID 493248).
A short description of test [6]: cytotoxicity toward NIH3T3 fibroblasts, dose response, counter-screen, cell-based, ATP luminescence, mouse fibroblasts (AID 2010).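 Note: cells exposed to compound for about 90 hours before reading.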 The class given is functional.
The nature of test [7]: HEp-2 cell cytotoxicity, dose response, cytotoxicity control for RSV inhibitor project, HTS (AID 2410). The class given is functional. To be noted: human respiratory syncytial virus.
A short description of test [8]: inhibitors of intracellular T. cruzi replication, confirmation, NIH3T3 host cells, beta-gal luminescence (AID 2044).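 Note: intracellular parasites grown in NIH/3T3 mouse fibroblasts as host cells; luminescent beta-galactosidase reporter signal from transgenic T. cruzi replicating inside host cells; inhibitors lower the luminescence signal.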 The class given is functional, cell-based.
The nature of test [9]: Luminescence Cell-Based Dose Confirmation HTS to Identify Inhibitors of Platelet Dense Granule Release. [Related pubchem assays: 1663 (Primary HTS), 1678 (Summary of Project)]. The class given is functional.
Test [10] concerns the target Luciferin 4-monooxygenase (Photinus pyralis, UniProt P08659). Nature of the test: firefly luciferase enzyme inhibitors, dose response, biochemical, luminescence (AID 1891).
Test [11] is described as follows: growth suppression of beta-catenin-knockout colon cells, dose response, cell-based, HCT116, human colon tumor (AID 1045).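 Note: HCT116 colon tumor cells with beta catenin knocked out; cells exposed to compound for 60 hours.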 The class given is functional.
Test [12] can be described thus: growth suppression of PTEN-null colon cells, dose response, cell-based, HCT116 PTEN knockout (AID 1047).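 Note: HCT116 colon tumor cells with PTEN knocked out; cells exposed to compound for 60 hours before readout; potency for loss of cell viability measured by luminescence.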 The class given is functional.
The target in test [13] is T2, Heat shock factor protein 1 (Mus musculus, UniProt P38532).
T2 sequence (P38532 whole entry): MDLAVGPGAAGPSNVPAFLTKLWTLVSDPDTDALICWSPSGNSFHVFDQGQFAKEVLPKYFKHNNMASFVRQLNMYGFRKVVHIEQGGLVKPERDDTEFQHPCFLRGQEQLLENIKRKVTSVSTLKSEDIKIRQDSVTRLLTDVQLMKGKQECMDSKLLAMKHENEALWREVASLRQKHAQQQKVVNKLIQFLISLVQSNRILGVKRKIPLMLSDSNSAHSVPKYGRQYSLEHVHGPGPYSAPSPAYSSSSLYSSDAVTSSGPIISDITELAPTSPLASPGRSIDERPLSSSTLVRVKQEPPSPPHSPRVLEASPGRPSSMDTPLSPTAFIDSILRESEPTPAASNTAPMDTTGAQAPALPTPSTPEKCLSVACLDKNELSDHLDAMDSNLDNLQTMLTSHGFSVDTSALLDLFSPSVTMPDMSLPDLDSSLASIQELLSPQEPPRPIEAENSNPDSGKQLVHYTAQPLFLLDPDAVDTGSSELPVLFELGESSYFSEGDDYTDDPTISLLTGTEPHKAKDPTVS
Nature of the test: inhibition of MG132-induced HSE-luciferase signal, confirmation, cell-based, NIH3T3, luminescence, dose retest (AID 2382).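 Note: NIH3T3 fibroblasts with HSF1-driven luciferase reporter stressed by proteasome inhibitor MG132; luminescence from HSF1-driven luciferase expression after 8 hours of MG132 stress.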 The class given is functional.

A short description of test [14]: Shn3 3'UTR reporter inhibitors, dose response, cell-based, Clone20 osteoblasts, firefly luciferase, cherry-picked (AID 624132).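 Note: firefly luciferase luminescence from reporter carrying the Shn3 3'UTR in osteoblasts.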 The class given is functional.
Another test has as its target T3, Cytochrome P450 1A2 (Homo sapiens, UniProt P05177).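 Note: PubChem cytochrome P450 panel assay, CYP1A2 panel member.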
T3 sequence (P05177 whole entry): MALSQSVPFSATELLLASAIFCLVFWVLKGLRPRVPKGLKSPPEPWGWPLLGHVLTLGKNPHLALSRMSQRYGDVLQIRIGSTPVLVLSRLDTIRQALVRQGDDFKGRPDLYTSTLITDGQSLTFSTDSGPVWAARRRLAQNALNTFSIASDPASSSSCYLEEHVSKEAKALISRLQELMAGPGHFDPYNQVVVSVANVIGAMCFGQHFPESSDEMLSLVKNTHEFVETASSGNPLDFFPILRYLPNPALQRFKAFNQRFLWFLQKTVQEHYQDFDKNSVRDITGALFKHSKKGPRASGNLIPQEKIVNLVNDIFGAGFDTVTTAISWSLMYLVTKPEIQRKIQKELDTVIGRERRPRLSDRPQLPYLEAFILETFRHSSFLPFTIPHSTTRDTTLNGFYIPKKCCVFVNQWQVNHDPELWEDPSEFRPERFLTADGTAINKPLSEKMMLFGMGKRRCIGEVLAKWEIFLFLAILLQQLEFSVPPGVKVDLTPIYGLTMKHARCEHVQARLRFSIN

A short description of test [15]: HepG2 cell cytotoxicity, dose response, cytotoxicity control for Shn3 inhibitor project, CellTiter-Glo, cherry-picked (AID 624134). The class given is functional, cell-based.
A short description of test [16]: Luminescence Cell-Based Dose Retest to Confirm Inhibitors of Cancer Stem Cells. [Related pubchem assays (depositor defined):AID2717, AID2721]. The class given is functional. The following applies: Homo sapiens.
Test [17] in a line: control 3'UTR Renilla luciferase suppression, dose response, counter-screen for Shn3 inhibitor project, cell-based, Clone20-Shn3RL, cherry-picked (AID 624133). The class given is functional.
A short description of test [18]: cells. The class given is functional.
Another test has as its target Cytochrome P450 2C19 (Homo sapiens, UniProt P33261). Kind of test: Cytochrome panel assay with activity outcomes. Panel member name: p450-cyp2c19 Compounds with AC50 equal or less than 10 uM are considered active. The class given is functional. To be noted: read-out: AC50.

Active and inactive are the calls of the source.

Here are results for 40 molecules from ChEMBL document CHEMBL1201862, “PubChem BioAssay data set” (2004).

Luciferin 4-monooxygenase, sequence (P08659 whole entry): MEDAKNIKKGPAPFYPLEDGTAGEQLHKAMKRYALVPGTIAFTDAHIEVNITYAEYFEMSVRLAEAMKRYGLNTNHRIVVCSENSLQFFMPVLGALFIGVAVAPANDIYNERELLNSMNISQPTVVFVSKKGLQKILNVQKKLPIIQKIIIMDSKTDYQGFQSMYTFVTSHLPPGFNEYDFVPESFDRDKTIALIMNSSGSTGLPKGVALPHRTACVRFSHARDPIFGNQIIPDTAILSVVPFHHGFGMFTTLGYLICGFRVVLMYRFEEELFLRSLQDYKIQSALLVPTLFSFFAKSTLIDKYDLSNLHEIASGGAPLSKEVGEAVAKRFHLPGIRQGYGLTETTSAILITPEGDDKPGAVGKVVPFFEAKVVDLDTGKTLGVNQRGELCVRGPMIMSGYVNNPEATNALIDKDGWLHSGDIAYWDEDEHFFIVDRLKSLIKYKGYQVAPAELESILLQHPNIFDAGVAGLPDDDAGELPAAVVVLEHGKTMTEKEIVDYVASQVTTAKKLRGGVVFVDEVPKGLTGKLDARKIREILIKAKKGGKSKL
FAD-linked sulfhydryl oxidase ALR, sequence (P55789 whole entry): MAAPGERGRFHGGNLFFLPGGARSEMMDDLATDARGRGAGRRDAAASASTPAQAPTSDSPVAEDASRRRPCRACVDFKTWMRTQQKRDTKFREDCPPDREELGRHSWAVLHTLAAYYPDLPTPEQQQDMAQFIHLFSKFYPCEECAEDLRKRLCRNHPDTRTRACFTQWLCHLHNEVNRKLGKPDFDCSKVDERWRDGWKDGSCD
T1 sequence (P11940 whole entry): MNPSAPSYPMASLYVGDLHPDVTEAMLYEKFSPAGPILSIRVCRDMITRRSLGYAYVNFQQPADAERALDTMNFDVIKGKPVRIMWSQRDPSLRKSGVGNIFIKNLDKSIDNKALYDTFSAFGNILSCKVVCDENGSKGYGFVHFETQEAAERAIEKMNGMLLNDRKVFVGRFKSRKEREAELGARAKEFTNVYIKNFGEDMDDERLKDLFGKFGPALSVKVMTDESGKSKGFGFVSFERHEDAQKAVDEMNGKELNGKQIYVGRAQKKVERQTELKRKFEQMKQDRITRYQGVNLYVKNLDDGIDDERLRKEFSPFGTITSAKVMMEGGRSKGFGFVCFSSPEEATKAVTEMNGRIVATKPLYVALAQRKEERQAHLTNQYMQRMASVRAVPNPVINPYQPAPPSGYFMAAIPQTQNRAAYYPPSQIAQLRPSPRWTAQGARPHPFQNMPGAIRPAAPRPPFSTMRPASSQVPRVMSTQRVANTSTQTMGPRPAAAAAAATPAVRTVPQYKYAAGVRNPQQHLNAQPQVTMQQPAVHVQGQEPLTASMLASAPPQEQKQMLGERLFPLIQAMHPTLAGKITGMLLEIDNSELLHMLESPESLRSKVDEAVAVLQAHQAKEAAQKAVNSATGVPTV
Cytochrome P450 2D6, sequence (P10635 whole entry): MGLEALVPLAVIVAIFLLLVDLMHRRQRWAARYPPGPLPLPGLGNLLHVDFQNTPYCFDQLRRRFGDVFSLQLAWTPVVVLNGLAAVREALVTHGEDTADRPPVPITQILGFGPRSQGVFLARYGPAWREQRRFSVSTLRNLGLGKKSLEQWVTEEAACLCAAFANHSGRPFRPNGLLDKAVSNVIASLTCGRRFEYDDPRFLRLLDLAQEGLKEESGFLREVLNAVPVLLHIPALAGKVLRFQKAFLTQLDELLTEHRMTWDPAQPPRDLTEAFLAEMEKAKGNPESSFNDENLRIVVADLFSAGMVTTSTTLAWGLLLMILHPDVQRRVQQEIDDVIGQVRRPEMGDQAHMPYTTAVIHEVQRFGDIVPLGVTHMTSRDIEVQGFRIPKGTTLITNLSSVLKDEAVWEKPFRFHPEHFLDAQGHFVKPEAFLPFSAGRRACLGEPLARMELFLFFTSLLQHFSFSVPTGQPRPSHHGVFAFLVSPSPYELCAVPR
Cytochrome P450 2C19, sequence (P33261 whole entry): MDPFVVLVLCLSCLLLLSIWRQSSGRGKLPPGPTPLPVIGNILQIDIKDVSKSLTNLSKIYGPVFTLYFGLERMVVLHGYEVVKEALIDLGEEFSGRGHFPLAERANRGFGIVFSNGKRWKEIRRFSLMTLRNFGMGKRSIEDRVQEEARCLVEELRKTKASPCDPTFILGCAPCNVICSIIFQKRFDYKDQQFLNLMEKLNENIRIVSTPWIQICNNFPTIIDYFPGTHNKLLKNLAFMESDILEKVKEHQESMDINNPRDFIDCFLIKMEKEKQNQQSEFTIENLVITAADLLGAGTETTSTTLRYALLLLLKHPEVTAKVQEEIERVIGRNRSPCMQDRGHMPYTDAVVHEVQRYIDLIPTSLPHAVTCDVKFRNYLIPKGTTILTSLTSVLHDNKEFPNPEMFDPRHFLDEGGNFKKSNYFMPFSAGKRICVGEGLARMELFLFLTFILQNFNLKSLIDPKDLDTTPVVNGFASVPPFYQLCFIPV
Cytochrome P450 3A4, sequence (P08684 whole entry): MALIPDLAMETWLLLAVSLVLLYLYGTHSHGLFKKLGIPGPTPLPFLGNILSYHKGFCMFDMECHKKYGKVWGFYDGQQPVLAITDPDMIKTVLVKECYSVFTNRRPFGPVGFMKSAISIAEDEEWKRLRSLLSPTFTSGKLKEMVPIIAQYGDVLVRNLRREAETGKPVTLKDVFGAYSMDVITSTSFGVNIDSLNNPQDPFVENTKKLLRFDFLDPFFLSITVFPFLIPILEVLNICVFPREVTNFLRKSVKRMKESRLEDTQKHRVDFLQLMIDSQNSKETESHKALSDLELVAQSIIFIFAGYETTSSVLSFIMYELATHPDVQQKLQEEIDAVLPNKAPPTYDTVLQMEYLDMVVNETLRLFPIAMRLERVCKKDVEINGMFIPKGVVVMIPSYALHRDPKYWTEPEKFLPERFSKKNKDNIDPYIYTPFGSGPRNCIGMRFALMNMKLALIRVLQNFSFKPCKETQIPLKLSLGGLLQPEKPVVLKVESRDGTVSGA
Cytochrome P450 2C9, sequence (P11712 whole entry): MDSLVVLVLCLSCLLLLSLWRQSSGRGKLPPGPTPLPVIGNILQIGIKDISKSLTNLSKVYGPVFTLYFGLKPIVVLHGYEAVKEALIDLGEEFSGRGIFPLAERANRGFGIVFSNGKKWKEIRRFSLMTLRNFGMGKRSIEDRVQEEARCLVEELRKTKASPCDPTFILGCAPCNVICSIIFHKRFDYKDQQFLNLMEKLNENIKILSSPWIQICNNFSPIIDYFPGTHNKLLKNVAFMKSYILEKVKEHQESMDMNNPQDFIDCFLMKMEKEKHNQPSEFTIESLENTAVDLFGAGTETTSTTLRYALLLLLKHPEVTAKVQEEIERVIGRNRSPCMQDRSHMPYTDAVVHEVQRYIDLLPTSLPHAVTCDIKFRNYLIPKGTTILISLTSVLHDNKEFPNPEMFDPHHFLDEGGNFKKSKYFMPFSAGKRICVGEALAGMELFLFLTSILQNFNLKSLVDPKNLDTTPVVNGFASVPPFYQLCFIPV

As to `CC(C)CN(C(=O)COC(=O)c1ccc2c(c1)NC(=O)CS2)C1CCS(=O)(=O)C1` (stereo not drawn), the IC50 in test [1] and in test [2] was > 66 µM (inactive) in each case.

In the case of `O=C(NCc1cccs1)C1CC(=O)N(C2CCCC2)C1` (stereo not drawn), the EC50 in the test “cells [3]” and in “cells [4]” was > 350 µM (not active) each time.

`COc1cc2ncnc(NCc3cccs3)c2cc1OC`: the EC50 in the test “cells [3]” and in “cells [4]” was > 350 µM (not active) throughout.

Consider `NCCCCCc1nnc(SCc2ccc(Cl)cc2Cl)o1`, for which the results for the AC50 (at Cytochrome P450 2C9; in [5]) were 14.1 µM (inconclusive) and 2.63 µM (active), respectively.

For `Cn1cc(C(=O)N2CCCC(Nc3ccc(F)cc3)C2)c2ccccc21` (stereo not drawn), in test [5], the AC50 is 1.5 µM (active).

Turning to `O=C(CS(=O)(=O)c1ccccc1)Nc1ccc(N2CCOCC2)cc1`, the EC50 in the test “cells [3]” and in “cells [4]” was > 350 µM (not active) each time.

For `O=C(Nc1cccc(NC(=O)c2ccc(-c3cccc(Br)c3)o2)c1)c1ccco1`, the EC50 in test [6] is 14.9 µM (active); in test [8] it was 3.69 µM (active). The AC50 at Cytochrome P450 2D6 is 17.8 µM (inconclusive). Also, the CC50 in test [7] is 16 µM (active).

For `Cc1cc(C)c2cc(CN(Cc3ccco3)C(=O)NCc3ccccc3)c(O)nc2c1`, the EC50 in [9] and in test [10] was > 112 µM (not active) throughout.

For `COc1ccc(S(=O)(=O)Cc2ccc(C(=O)N3CCN(c4ccc(Cl)cc4)CC3)o2)cc1`, the EC50 is 38.8 µM (active) in test [11] and 16.3 µM (active) in test [12]. In test [5], the AC50 is 5.64 µM (active).

In the case of `O=C1NCCCc2c1oc1cc(Br)c(O)c(Br)c21`, the AC50 in test [5] is 3.5 µM (active).

Turning to `COc1ccc2oc(C(=O)OCC(=O)Nc3ccccc3OC)c(C)c2c1`, the EC50 in the test “cells [3]” was 40.5 µM (active); in “cells [4]” it was > 350 µM (not active).

On to `CC(=O)c1c(C)nc2nonc2c1N`, for which the EC50 in [9] is 26.6 µM (active); in test [10], > 112 µM (not active).

With `COc1ccc(NC(=O)c2nc3nc(C)cc(C(F)F)n3n2)cc1OC`, the values for the EC50 in [9] and in [10] were > 112 µM (not active) and 18.9 µM (active), respectively.

As for `CCN1C(=O)[C@@H]2[C@@H](c3ccc(SC4CCCCC4)cc3)N3CCC[C@@]3(C(=O)OC)[C@@H]2C1=O`, the IC50 in [1] and in test [2] was > 66 µM (inactive) throughout.

Turning to `Cc1ccc(NC(=O)CN(c2ccc3c(c2)OCO3)S(=O)(=O)c2c(C)n[nH]c2C)cc1`, the AC50 in test [5] is > 100 µM (inactive).

Take `CN(C)c1ccc(/C=N/NC(=O)c2ccco2)cc1`: the AC50 in [5] is 6.78 µM (active).

`N#Cc1c2n(c(=S)n(-c3ccccc3[N+](=O)[O-])c1=O)CCCCC2`: the IC50 in [1] and in [2] was > 66 µM (inactive) throughout.

Take `Cc1ccc(CN(C(=O)c2csnn2)C(C(=O)NC2CCCC2)c2ccco2)cc1` (stereo not drawn): the EC50 in test [9] and in test [10] was > 112 µM (not active) in each case.

For the molecule `CCc1nc2sc3ccccc3c(=O)c2c(=O)n1Cc1ccc(OC)cc1`, in [13], the EC50 is reported as > 195 µM (not active). Further, the CC50 in test [7] is > 50 µM (active).

As to `CCOC(=O)c1cc(CC)sc1NC(=O)c1ccc([N+](=O)[O-])c(N2CCOCC2)c1`, the EC50 in [11] was 34.2 µM (active); in test [12], 39.9 µM (active).

For the molecule `CN(C)c1nc(-c2cn(CCC#N)c3ccccc23)cs1`, the IC50 is > 66 µM (inactive) in test [1] and 56.9 µM (inactive) in [2].

With `CCCCOC(=O)c1ccc(NC(=O)C(=O)NCc2cccnc2)cc1`, the EC50 in the test “cells [3]” and in the test “cells [4]” was > 350 µM (not active) in each case.

Take `CCOC(=O)C1CCN(C(=O)CCc2nnc3ccc(NCc4ccco4)nn23)CC1`: the EC50 in test [9] and in test [10] was > 112 µM (not active) each time.

As to `CC1CN=C(NC(=O)c2cccc([N+](=O)[O-])c2)S1` (stereo not drawn), the IC50 in test [1] and in test [2] was > 66 µM (inactive) each time.

On to `COc1ccc(OC)c(NC(=O)CS(=O)(=O)Cc2nc(-c3ccccc3C)oc2C)c1`, for which the EC50 in [9] and in test [10] was > 112 µM (not active) throughout.

On to `CC(=O)c1ccc(N2CCC(c3cc(-c4ccc(Cl)cc4)[nH]n3)CC2)c([N+](=O)[O-])c1`, for which the figures for the EC50 in test [6] and in test [8] were > 60 µM (inconclusive) and 1.13 µM (active), respectively. Besides, the AC50 was 5 µM (active) in test [14]; 2.82 µM (inconclusive) at Cytochrome P450 1A2; 39.8 µM (inconclusive) on Cytochrome P450 3A4; > 70 µM (inactive) in [15]; 2.39 µM (active) in [16]; 20 µM (active) in test [17].

As for `COc1cccc(Nc2c(F)c(F)c(F)c(F)c2C(=O)O)c1`, the AC50 in test [5] was 4.26 µM (active).

Consider `O=C(O)Cn1cc(C(=S)N2CCCCC2)c2ccccc21`, for which the AC50 in test [5] is 0.407 µM (active).

As for `COc1cccc(Nc2ccc(C(=O)O)cc2N)c1`, the EC50 in [13] is > 195 µM (not active). For the same molecule, the AC50 in test [5] is 1.17 µM (active).

For the molecule `FC(F)c1nnc2ccc(Cl)nn12`, in “cells [18]”, the IC50 is 7.13 µM (active).

As for `COCc1c(C(=O)N/N=C(\C)c2ccc(Cl)s2)nnn1-c1nonc1N`, the EC50 in the test “cells [3]” and in the test “cells [4]” was > 350 µM (not active) throughout.

Turning to `CCc1c(C(C)S(=O)(=O)c2ccccc2)nc(O)n1CC` (stereo not drawn), the IC50 in test [1] and in test [2] was > 66 µM (inactive) in each case.

On to `O=[N+]([O-])c1ccc(CN2CCN(c3ccc(F)cc3)CC2)o1`, for which the IC50 in “cells [18]” is < 0.1 µM (active).

As for `CCOC(=O)Cc1cnc(S)nc1O`, the IC50 in [1] and in test [2] was > 66 µM (inactive) in each case.

Turning to `O=C(CN1C(=O)NC2(CCCCCC2)C1=O)c1ccccc1`, the EC50 in test [9] and in [10] was > 112 µM (not active) throughout.

For `Cc1cccn2c(=O)c(/C=N/Cc3ccco3)c(Nc3ccc(SC(F)F)cc3)nc12`, the EC50 was 14 µM (active) in test [11] and 10.7 µM (active) in test [12]. Besides, the AC50 on Cytochrome P450 2C19 was 4.47 µM (inconclusive).

In the case of `COC(=O)[C@H](CC(C)C)NC(=O)NCCC1=CCCCC1`, the IC50 in “cells [18]” is 21.6 µM (active).

As to `CC(C)=CCN1CCN(CCC2=C(C)CCCC2(C)C)CC1CCO` (stereo not drawn), the IC50 in “cells [18]” was 21.8 µM (active).

Regarding `CN1CCN(C(=S)c2ccc(N(C)C)cc2)CC1`, the AC50 in test [5] is 1.45 µM (active).

On to `O=P(CN1CCN(c2ccccc2)CC1)(N1CCCCC1)N1CCCCC1`, for which, in test [5], the AC50 was 0.656 µM (active).
